The text below walks through data of patent publication US20140206682A1, “COMPOUNDS AND COMPOSITIONS AS PDGFR KINASE INHIBITORS” (NOVARTIS PHARMACEUTICALS UK LIMITED, priority 2011, published 2014).

Structures are written as SMILES. pIC50: −log10 of the molar value. A value given as a limit tells only on which side of the number the result lay.

The test system of the first assay is PDGFR. Nature of the assay: Rat A10 cell proliferation assay. The assay is classed as cell-based. As to conditions: Table 1; Rat A10 cells, recombinant rat PDGF-BB, CellTiter-Glo after 68 hours. Put shortly: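 Rat A10 cells in DMEM with 1% FBS and 10 ng/mL rat PDGF-BB, preincubated 4 h at 37 °C, then exposed to 3-fold serially diluted compound for 68 h. Viability/proliferation read as CellTiter-Glo luminescence.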
Regarding `O=C(N[C@H]1CCCC[C@@H]1O)c1ccc(F)c(NC(=O)c2cnc3ccccn23)c1` [F9, N-(2-fluoro-5-{[(1S,2S)-2-hydroxycyclohexyl]carbamoyl}phenyl)imidazo[1,2-a]pyridine-3-carboxamide], the pIC50 is 7.15.

`COc1ccc2ncc(C(=O)Nc3cc(C(=O)N[C@@H]4c5ccccc5C[C@@H]4O)ccc3F)n2c1` [F19, N-(2-fluoro-5-{[(1R,2S)-2-hydroxy-2,3-dihydro-1H-inden-1-yl]carbamoyl}phenyl)-6-methoxyimidazo[1,2-a]pyridine-3-carboxamide]: the negative-log IC50 (pIC50) is 7.09.

Still in this assay, the particulars now being: Table 2; Rat A10 cells, recombinant rat PDGF-BB, CellTiter-Glo after 68 hours.
Consider `O=C(N[C@H]1CCC[C@H]1O)c1ccc(F)c(NC(=O)c2cnc3ccccn23)c1` [F74, N-(2-fluoro-5-{[(1S,2R)-2-hydroxycyclopentyl]carbamoyl}phenyl)imidazo[1,2-a]pyridine-3-carboxamide], for which the negative logarithm of the IC50 (pIC50) was 5.46.

As to `O=C(NC[C@@H](O)c1ccccc1)c1ccc(F)c(NC(=O)c2cnc3ccccn23)c1` [F94, N-(2-fluoro-5-{[(2S)-2-hydroxy-2-phenylethyl]carbamoyl}phenyl)imidazo[1,2-a]pyridine-3-carboxamide], the pIC50 is 6.62.

As to `Cc1ccc2ncc(C(=O)Nc3cc(C(=O)N[C@@H]4c5ccc(Cl)cc5C[C@@H]4O)ccc3F)n2c1` [F84, N-(5-{[(1R,2S)-5-chloro-2-hydroxy-2,3-dihydro-1H-inden-1-yl]carbamoyl}-2-fluorophenyl)-6-methylimidazo[1,2-a]pyridine-3-carboxamide], the pIC50 is 6.23. Turning to `CCC[C@@H](CO)NC(=O)c1ccc(F)c(NC(=O)c2cnc3ccccn23)c1` [F49, N-(2-fluoro-5-{[(2S)-1-hydroxypentan-2-yl]carbamoyl}phenyl)imidazo[1,2-a]pyridine-3-carboxamide], the pIC50 is 6.43.

As to `O=C(N[C@@H]1CCC[C@@H]1O)c1ccc(F)c(NC(=O)c2cnc3ccccn23)c1` (stereo in doubt) [F66, N-(2-fluoro-5-{[(1R,2S)-2-hydroxycyclopentyl]carbamoyl}phenyl)imidazo[1,2-a]pyridine-3-carboxamide], the pIC50 was 5.93. Same read-out and setting: the result for `O=C(N[C@H]1CCCCC1O)c1cccc(NC(=O)c2cnc3ccccn23)c1` (stereo in doubt) [F67, N-(3-{[(1S,2S)-2-hydroxycyclohexyl]carbamoyl}phenyl)imidazo[1,2-a]pyridine-3-carboxamide] reads 5.87.

Regarding `O=C(NC(CO)c1ccccc1)c1cccc(NC(=O)c2cnc3ccccn23)c1` (stereo not shown) [F65, N-{3-[(2-hydroxy-1-phenylethyl)carbamoyl]phenyl}imidazo[1,2-a]pyridine-3-carboxamide], the pIC50 is 5.95. On the same count and under the same terms, the result for `CC(C)[C@H](CO)NC(=O)c1cccc(NC(=O)c2cnc3ccccn23)c1` [F80, N-(3-{[(2R)-1-hydroxy-3-methylbutan-2-yl]carbamoyl}phenyl)imidazo[1,2-a]pyridine-3-carboxamide] reads less than 5.00.

By pIC50 is commonly meant the negative decadic logarithm of the IC50, by convention in mol/L.
